Experimental findings from patent US8450525B2, “Histone deacetylase inhibitors” (Orchid Chemicals & Pharmaceuticals Limited, priority 2007, dated 2013) are described below.

In general, IC50 refers to the concentration that inhibits the measured activity by half. A word on the GI50: it is the concentration that inhibits growth by half.

In one assay the test system is Acetylated histone (H3). Kind of assay: Histone (H3) acetylation, sandwich ELISA in HCT116 cell lysate. The class given is cell-based. The note with it: HCT116 cells, 4 hours, vs control. As for the experimental part: (§1) The incubation lasted 18 hours for p21 induction. After incubation, cell lysates were prepared in cell lysis buffer by sonication on ice. The lysates were collected after centrifugation and subjected to ELISA test procedure. 100 μL of each diluted cell lysate in dilution buffer (1:1) was added to appropriate capture antibody coated microwells and incubated overnight at 4° C. After washing, 100 μL of detection antibody was added for 1 hour at 37° C. After second washing, 100 μL of HRP-linked secondary antibody was added for 30 minutes at 37° C. Finally, after appropriate washing, 100 μL of TMB substrate was added for 10 minutes at 37° C. followed by 100 μL, of stop solution. The absorbance of individual wells was read using a spectrophotometer at 450 nm (A450).

The subject of a further assay is acetylated Tubulin. Kind of assay: Tubulin acetylation, sandwich ELISA in HCT116 cell lysate. The format is cell-based. As to conditions: HCT116 cells, 4 hours, vs control. The method, then:
as §1
On the technique in general: An ELISA detects its analyte on a solid surface through an enzyme-linked reagent.

Another assay deals with T1, recombinant HDAC1 enzyme (Homo sapiens, UniProt Q13547).
T1 construct: purchased BIOMOL, USA
T1 sequence (Q13547 whole entry): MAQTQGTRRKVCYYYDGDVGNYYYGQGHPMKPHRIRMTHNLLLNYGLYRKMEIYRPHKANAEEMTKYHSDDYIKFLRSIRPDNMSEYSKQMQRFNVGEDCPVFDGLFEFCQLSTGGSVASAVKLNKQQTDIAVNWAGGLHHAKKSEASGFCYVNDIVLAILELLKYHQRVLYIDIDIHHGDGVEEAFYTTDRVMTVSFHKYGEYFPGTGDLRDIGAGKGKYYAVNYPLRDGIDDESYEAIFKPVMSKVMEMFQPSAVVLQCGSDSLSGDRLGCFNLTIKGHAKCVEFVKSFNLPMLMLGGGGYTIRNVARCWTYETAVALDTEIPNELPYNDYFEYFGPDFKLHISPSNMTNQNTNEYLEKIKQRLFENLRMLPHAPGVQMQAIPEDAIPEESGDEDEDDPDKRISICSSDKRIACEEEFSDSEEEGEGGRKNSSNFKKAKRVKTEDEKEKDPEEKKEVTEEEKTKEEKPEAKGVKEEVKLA
In words: HDAC1 inhibitory activity, recombinant enzyme. The class given is biochemical. The note with it: recombinant HDAC1 (BIOMOL); read-out: HDAC1 inhibition (IC50). The method, then:
Assay was done in 96-well black microplate and total volume of the assay was 100 μL. Mouse liver enzyme (10 mg/ml) was diluted 1:6 with HDAC buffer. Enzyme cocktail was made of 10 μL of diluted enzyme and 30 μL of HDAC buffer. 40 μl of enzyme cocktail followed by 10 μL of test compound (1 μM and 10 μM) or buffer (control) was added to each well. The plate was pre-incubated at 37° C. for 5 minutes. The HDAC reaction was started by adding 50 μl of HDAC substrate Boc-Lys (Ac)-AMC (Bachem AG, Switzerland). The plate was incubated at 37° C. for 30 minutes. The reaction was stopped by adding 100 μL of Trypsin stop solution and incubating at 37° C. for 15-30 minutes. Measuring the fluorescence at excitation wavelength of 360 nm and emission wavelength of 460 nm monitored the release of AMC. Buffer alone and substrate alone served as blank. […] (Dennis Wegener et al, Anal. Biochem, 321, 2003, 202-208).
Since the benzamide type compounds are known to have potential for HDAC class 1 specificity, active compounds were tested for HDAC1 inhibitory activity. The assay was carried out, as previously described using recombinant HDAC1 enzyme (BIOMOL, USA) and following manufacturer's instructions.

Another assay concerns HCT116 (colon) xenograft. The format is in vivo. The note with it: 100 mg/kg p.o. qdx21, HCT116 xenograft, vs vehicle treated control. The method, then:
Experiments were carried out using 6-8 week old female […] SCID (Severe Combined Immune Deficient) mice. The mice were housed in Individually Ventilated Cages (IVC) at constant temperature (22±3° C.) and humidity (50±20%). They had free access to food and water. Tumors were obtained from ATCC, USA and maintained in vivo by subcutaneous (s.c.) passage of tumor fragments (app×30 mg) in healthy mice according to standard reported procedures. All the animal protocols were approved by the Institutional Animal Ethics Committee, ORLL, Chennai. Each experimental group included 6-8 mice bearing s.c. tumors. Tumors were implanted into the axillary region by puncturing using a Trocar, and tumor growth was monitored by measurement of tumor diameters with a Vernier caliper. Tumor Volume (TV) was calculated according to the following formula: TV (mm^3)=L×W^2×0.5,
Where L and W are the longest diameter and shortest diameter of the tumor, respectively. The compound treatment started when tumors were palpable (150-200 mm^3).
Test compound was administered by oral gavage in a volume of 5-10 ml/kg. […] Tumor size was measured twice every week and body weight was recorded daily prior to dosing.
Test compound (T) efficacy was assessed by calculating several parameters based on tumor volume (TV) with respect to untreated control (C). […]
Toxic effects of drug treatment were assessed by Body Weight Loss %. […]

A further assay has as its system p21. Kind of assay: p21 induction, sandwich ELISA in HCT116 cell lysate. The class given is cell-based. As to conditions: HCT116 cells, 18 hours, vs control. As for the experimental part:
as §1

Assay [1] concerns the target T2, HDAC (Mouse Liver Extract).
T2 construct: Mouse liver enzyme (10 mg/ml) was diluted 1:6 with HDAC buffer
Kind of assay: HDAC inhibition assay using Boc-Lys(Ac)-AMC substrate, mouse liver enzyme.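 As to IC50: IC50 for inhibition of HDAC activity in mouse liver extract.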 The class given is biochemical.

A further assay relates to HCT 116 (colon) cells. In words: Anti-cancer screen, growth inhibition (MTT). The class given is cell-based. As to conditions: Homo sapiens, HCT-116 cells, 48 hours of incubation. An outline of the steps:
(§2)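 MTT added for 3 h at 37° C, formazan dissolved in DMSO and A570 read. A T0 plate was measured at compound addition.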

The next assay deals with NCI-H460 (lung) cells. Kind of assay: Anti-cancer screen, growth inhibition (MTT). The class given is cell-based. The note with it: Homo sapiens, 48 hours of incubation. An outline of the steps: as §2
For the next assay, the system named is U251 (glioma) cells. In words: Anti-cancer screen, growth inhibition (MTT). The class given is cell-based. The note with it: Homo sapiens, U-251 cells, 48 hours of incubation. In short, it runs like this:
as §2

`Nc1ccccc1NC(=O)c1ccc(/C=C(/C(=O)NC2CC2)c2ccc(F)cc2)cc1` [Example 105, (E)-N-(2-Aminophenyl)-4-(3-(cyclopropylamino)-2-(4-fluorophenyl)-3-oxoprop-1-en-1-yl)benzamide]: the entries for the “H3 Acetylation (Fold Increase)” value with Acetylated histone (H3) (1 μM) and with Acetylated histone (H3) (10 μM) were 1.24 and 6.67, respectively. Moreover, the figures for the “μ-Tubulin Acetylation (Fold Increase)” value with acetylated Tubulin (1 μM) and in the assay on acetylated Tubulin (10 μM) were 2.22 and 8.98, respectively. Further, the IC50 at recombinant HDAC1 enzyme stood at 0.077 µM; in assay [1], 15.8 µM. In addition, in the assay on HCT116 (colon) xenograft, the “maximum Tumor Volume Inhibition (TVI)” value is recorded as 39.4%. Besides, the “P21 Induction (Fold Increase)” value came out at 1.05 in the assay with p21 (1 μM) and 2.50 with p21 (10 μM). In addition, the “HDAC Inhibition % (1 μM)” value in [1] amounted to 46.0%. Also, the “HDAC Inhibition % (10 μM)” value in assay [1] is on record as 71.3%. Besides, the results for the concentration for 50% growth inhibition (GI50) in the assay on HCT 116 (colon) cells, in the assay with NCI-H460 (lung) cells and in the assay on U251 (glioma) cells were 1 µM, 0.9 µM and 4.8 µM, respectively.

As for `Nc1ccccc1NC(=O)c1ccc(/C=C(/C(=O)NC2CC2)c2cccc(F)c2)cc1` [Example 110, N-(2-Aminophenyl)-4-(3-(cyclopropylamino)-2-(3-fluorophenyl)-3-oxoprop-1-en-1-yl)benzamide], the IC50 at recombinant HDAC1 enzyme came out at 0.15 µM; in assay [1] it was 5 µM. The “HDAC Inhibition % (1 μM)” value in [1] came out at 45.7%. Moreover, the “HDAC Inhibition % (10 μM)” value in assay [1] stood at 71.4%. The concentration for 50% growth inhibition (GI50) was determined as 0.3 µM with HCT 116 (colon) cells, 5.5 µM in the assay on NCI-H460 (lung) cells and 5 µM in the assay with U251 (glioma) cells.

On to `Nc1ccccc1NC(=O)c1ccc(/C=C(/C(=O)NC2CC2)c2ccc3c(c2)OCO3)cc1` [Example 111, N-(2-Aminophenyl)-4-(3-(cyclopropylamino)-2-(1,3-benzodioxol-5-yl)-3-oxoprop-1-en-1-yl)benzamide], for which the 50% inhibitory concentration (IC50) at recombinant HDAC1 enzyme worked out at 0.1 µM; in assay [1], 8 µM. Besides, the “HDAC Inhibition % (1 μM)” value in [1] amounted to 24.8%. Further, the “HDAC Inhibition % (10 μM)” value in assay [1] is listed as 52.2%. The GI50 with HCT 116 (colon) cells turned out to be 1.1 µM; with NCI-H460 (lung) cells it was 2.1 µM; with U251 (glioma) cells, 1.5 µM.

Turning to `Nc1ccccc1NC(=O)c1ccc(/C=C(/C(=O)NC2CC2)c2ccccc2Cl)cc1` [Example 112, N-(2-Aminophenyl)-4-(3-(cyclopropylamino)-2-(2-chlorophenyl)-3-oxoprop-1-en-1-yl)benzamide], the figures for the IC50 (on recombinant HDAC1 enzyme; in [1]) were 0.049 µM and 4.5 µM, respectively. In addition, in assay [1], the “HDAC Inhibition % (1 μM)” value amounted to 29.9%. Moreover, the “HDAC Inhibition % (10 μM)” value in assay [1] was 55.7%. Also, the results for the 50% growth inhibitory concentration (GI50) with HCT 116 (colon) cells, in the assay with NCI-H460 (lung) cells and in the assay on U251 (glioma) cells were 6 µM, 1.1 µM and 20 µM, respectively.

For `Nc1ccccc1NC(=O)c1ccc(/C=C(/C(=O)NC2CC2)c2cccc(Cl)c2)cc1` [Example 114, N-(2-Aminophenyl)-4-(3-(cyclopropylamino)-2-(3-chlorophenyl)-3-oxoprop-1-en-1-yl)benzamide], the IC50 on recombinant HDAC1 enzyme stood at 0.044 µM; in [1], 5.5 µM. In addition, in assay [1], the “HDAC Inhibition % (1 μM)” value is 34.5%. In addition, in assay [1], the “HDAC Inhibition % (10 μM)” value came out at 59.0%. The 50% growth inhibitory concentration (GI50) with HCT 116 (colon) cells was found to be 0.4 µM; in the assay on NCI-H460 (lung) cells, 5 µM; in the assay with U251 (glioma) cells, 4 µM.

On to `Nc1ccccc1NC(=O)c1ccc(/C=C(/C(=O)NC2CC2)c2ccc(F)c(F)c2)cc1` [Example 115, N-(2-Aminophenyl)-4-(3-(cyclopropylamino)-2-(3,4-difluorophenyl)-3-oxoprop-1-en-1-yl)benzamide], for which the IC50 at recombinant HDAC1 enzyme came to 0.068 µM; in assay [1], 8.3 µM. The “HDAC Inhibition % (1 μM)” value in [1] turned out to be 31.1%. Also, the “HDAC Inhibition % (10 μM)” value in [1] was 50.1%. Further, the concentration for 50% growth inhibition (GI50) in the assay on HCT 116 (colon) cells was found to be 0.1 µM; with NCI-H460 (lung) cells it was 6 µM; with U251 (glioma) cells it was 15 µM.

For `COc1ccc(/C(=C\c2ccc(C(=O)Nc3ccccc3N)cc2)C(=O)NC2CC2)cc1` [Example 116, N-(2-Aminophenyl)-4-(3-(cyclopropylamino)-2-(4-methoxyphenyl)-3-oxoprop-1-en-1-yl)benzamide], the IC50 on recombinant HDAC1 enzyme turned out to be 0.06 µM; in assay [1], 9 µM. Moreover, in assay [1], the “HDAC Inhibition % (1 μM)” value is recorded as 32.4%. For the same compound, the “HDAC Inhibition % (10 μM)” value in [1] amounted to 55.7%. Besides, the GI50 in the assay on HCT 116 (colon) cells was 0.4 µM; in the assay with NCI-H460 (lung) cells it was 6.1 µM; in the assay on U251 (glioma) cells, 11 µM.
